Measurements published in patent publication US20230058623A1, “NOVEL HETEROARYL-TRIAZOLE COMPOUNDS AS PESTICIDES” (Bayer Aktiengesellschaft, priority 2019, published 2023).
Where two headings read alike, the source gives them in different places.

Assays:
Format in all cases: in vivo
[1] = system: green peach aphid (Myzus persicae); test: Myzus persicae oral test; details: 120 h, read-out: activity (mortality)
Summary of the method: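 Aphids of mixed population ingest the compound preparation by sucking through a parafilm sheet stretched over wells holding test solution plus IPL41 insect medium (33%+15% sugar). Kill rate in percent is determined five days later.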

[2] = system: adult engorged female ticks (Rhipicephalus microplus); test: Rhipicephalus (Boophilus) microplus injection test; details: 168 h, read-out: activity (efficacy: infertile eggs)
Summary of the method: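 Abdominal injection, 1 μL compound/DMSO, n=5 engorged adult females; climate-chamber incubation. Readout d7: fertile egg laying; doubtful eggs held to hatch (~42 d). % efficacy = infertile eggs (100% all infertile).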

[3] = system: Rhipicephalus (Boophilus) microplus larvae (strain Parkhurst, resistant against synthetic pyrethroids); test: Rhipicephalus (Boophilus) microplus in-vitro contact test, larval cattle tick; details: read-out: activity (efficacy: larvae dead or moribund)
Summary of the method: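 Pyrethroid-resistant Parkhurst larvae, 20–50 per tube, were kept 48 h at 27 °C and 85% relative humidity in glass tubes whose inner walls carried a dried acetone film of compound (900 ppm giving 5 μg/cm^2). Dead or moribund larvae, judged by loss of negative geotactic behavior, set percent efficacy.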

[4] = system: adult unfed cat fleas (Ctenocephalides felis); test: Ctenocephalides felis oral test; details: 48 h, read-out: activity (mortality)
Experimental: Ctenocephalides felis—Oral Test
Solvent: dimethyl sulfoxide
To produce a suitable preparation of active compound, 10 mg of active compound are dissolved in 0.5 mL solvent, and the concentrate is diluted with citrated cattle blood to the desired concentration.
Approximately 20 adult unfed cat fleas (Ctenocephalides felis) are placed in a flea chamber whose top and bottom is covered with gauze. A chamber whose bottom is sealed with parafilm, is filled with the blood-compound solution and placed on top of the flea chamber, so that the fleas can suck the blood. The blood chamber is heated to 37° C. whereas the flea chamber is kept at room temperature.
After 2 days mortality in % is determined. 100% means all the fleas have been killed; 0% means none of the fleas have been killed.

[5] = system: adult mosquitoes Aedes aegypti strain MONHEIM; test: Aedes aegypti test (AEDSAE surface treatment & contact assay); details: surface concentration 20 mg/m^2, exposure 30 minutes, 24 hours after contact, read-out: efficacy (mortality)
Experimental: Aedes aegypti Test (AEDSAE Surface Treatment & Contact Assay)
(§1) Solvent: Aceton+2000 ppm rapeseed oil methyl ester (RME)
(§2) In order to produce a sufficient, active ingredient containing solution it is necessary to solve the test compound in the solvent-mix (acetone at 2 mg/ml/RME 2000 ppm). This solution is pipetted onto a glazed tile and after evaporation of the acetone, adult mosquitoes of the species Aedes aegypti strain MONHEIM are placed onto the dried surface. The exposure time is 30 minutes.
(§3) Mortality in percent (%) is determined 24 hours after contact of the insects to the treated surface. 100% mortality means that all tested insects are dead, whereas 0% means that no insect died.

[6] = system: larvae of the banded cucumber beetle (Diabrotica balteata); test: Diabrotica balteata spray test; details: 168 h, application rate 100 g/ha (=32 μg/well), after 7 days, wheat seeds, read-out: activity (efficacy: seedlings grown)
Summary of the method: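 Efficacy (%) read 7 days after infesting treated seedlings with 10-20 banded cucumber beetle larvae, 100% meaning growth as in uninfected untreated control and 0% no growth. Test solutions in water containing 1000 ppm emulsifier were sprayed onto wheat seeds germinated for 1 day on agar.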

[7] = system: green peach aphid (Myzus persicae); test: Myzus persicae spray test; details: foliar, 120 h, read-out: activity (mortality)
Summary of the method: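 Percent kill was recorded 5 days after spraying. Test solutions, prepared with solvent and diluted in 1000 ppm emulsifier water, were applied to Brassica pekinensis leaf disks carrying mixed-instar green peach aphids.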

[8] = system: adult brown dog ticks (Rhipicephalus sanguineus); test: Rhipicephalus sanguineus in-vitro contact test, adult brown dog ticks; details: application rate 5 μg/cm^2 (=500 g/ha), after 48 hours, read-out: activity (efficacy: ticks dead or moribund)
Summary of the method: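 Read-out: % efficacy as dead or moribund ticks, judged 48 h after exposure by failure to climb away from a 45-50° C heating plate within 5 min. Tubes were coated with acetone solution (900 ppm = 5 μg/cm^2 surface dose) and held 5-10 adults each at room temperature.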

[9] = system: adult cat fleas (Ctenocephalides felis); test: Ctenocephalides felis in-vitro contact test, adult cat flea; details: application rate 5 μg/cm^2 (=500 g/ha), after 48 hours, read-out: activity (efficacy: fleas dead or moribund)
Summary of the method: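 After 48 h of room-temperature exposure in tubes whose walls carried dried compound residue (5 μg/cm^2, from 900 ppm acetone solution), adult cat fleas (5-10 per tube) were heat-challenged at 45-50° C up to 5 min. Fleas unable to climb away were counted dead or moribund, expressed as % efficacy.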

[10] = system: fall armyworm larvae (Spodoptera frugiperda); test: Spodoptera frugiperda spray test; details: 168 h, application rate 100 g/ha, after 7 days, maize leaf sections
Summary of the method: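 Read-out: % larval mortality at day 7, where 100% means all killed and 0% none killed. Compound diluted in water with 1000 ppm emulsifier, sprayed onto Zea mays leaf sections; dried sections then infested with S. frugiperda larvae.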

[11] = system: adult flies Musca domestica strain WHO-N; test: Musca domestica test (MUSCDO surface treatment & contact assay); details: 24 hours after contact, read-out: efficacy (mortality)
Experimental: Musca domestica Test (MUSCDO Surface Treatment & Contact Assay)
as §1
as §2, with “flies” for “mosquitoes”, “Musca domestica” for “Aedes aegypti”, “WHO-N” for “MONHEIM”
as §3

[12] = system: larvae of the southern green stink bug (Nezara viridula); test: Nezara viridula spray test; details: 96 h
Summary of the method: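 Barley plants sprayed with the active compound in emulsifier-containing water, then infested with stink bug larvae. Mortality scored in % after 4 days, with 100% meaning all insects killed.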

[13] = application rate 4 μg/tick, egg deposition after 7 days
[14] = application rate 1 μg/cm^2 (=100 g/ha), after 48 hours
[15] = application rate 5 μg/cm^2 (=500 g/ha), after 48 hours
[16] = application rate 100 g/ha, after 5 days, Chinese cabbage leaf disks

SMILES | mortality at 4 ppm [1] [%] | pest or weed control at 0.004 mg [2, 13] [%] | pest or weed control at 1 µg/cm2, 100 g/ha [3, 14] [%] | pest or weed control at 5 µg/cm2, 500 g/ha [3, 15] [%] | mortality at 100 ppm [4] [%] | mortality at 20 mg/m2 [5] [%] | pest or weed control at 32 µg/disc, 100 g/ha [6] [%] | mortality at 100 g/ha [7, 16] [%] | pest or weed control at 5 µg/cm2, 500 g/ha [8] [%] | pest or weed control at 5 µg/cm2 [9] [%] | mortality at 100 g/ha [10] [%] | pest or weed control at 1 µg/cm2, 100 g/ha ([3]; 48 h) [%] | pest or weed control at 5 µg/cm2, 500 g/ha ([3]; 48 h) [%] | mortality at 100 g/ha ([7]; in Brassica rapa) [%] | mortality at 4 mg/m2 ([11]; surface concentration 4 mg/m^2, exposure 30 minutes) [%] | mortality at 20 mg/m2 ([11]; surface concentration 20 mg/m^2, exposure 30 minutes) [%] | mortality at 500 g/ha ([12]; in Hordeum vulgare, read-out: activity (mortality)) [%] | pest or weed control at 0.004 mg [2] [%] | mortality at 100 g/ha ([12]; application rate 100 g/ha, after 4 days, barley plants) [%]
C[C@@H]1CN(C(=O)c2ccc(-n3ncnc3[C@H](C)NC(=O)c3cc(Cl)cc(C(F)(F)F)c3)nc2)C[C@@H](C)O1 [Example I-40] | 100 | 100 | 100 | 100 | 90 | 80 to 100 | 100 | 90 | 100 | – | – | – | – | – | – | – | – | – | –
Cc1nc([C@H](C)NC(=O)c2cc(Cl)cc(C(F)(F)F)c2)n(-c2ccc(C(=O)N3CCC3)cn2)n1 [Example I-23] | 100 | 100 | 90 | 90 | 90 | 80 to 100 | – | 90 | 100 | 100 | 100 | – | – | – | – | – | – | – | –
C[C@H](NC(=O)c1cc(Cl)cc(C(F)(F)F)c1)c1ncnn1-c1ccc(C(=O)N2CC3CC(C2)O3)cn1 [Example I-41] | 100 | 100 | – | – | 100 | – | 100 | – | 100 | 80 | – | 100 | 100 | 90 | – | – | – | – | –
Cc1nc([C@H](C)NC(=O)c2cc(OC(F)(F)F)cc(C3CC3)c2)n(-c2ccc(C(=O)N3C[C@@H](C)O[C@@H](C)C3)cn2)n1 [Example I-115] | 100 | 100 | 90 | 90 | 100 | – | 80 | 90 | 100 | 100 | – | – | – | – | 80 to 100 | 80 to 100 | – | – | –
Cc1nc([C@H](C)NC(=O)c2cc(C(F)(F)F)cc(C(F)(F)F)c2)n(-c2ccc(C(=O)N3CCC[Si](C)(C)C3)cn2)n1 [Example I-93] | – | – | – | – | 100 | – | – | – | – | – | – | 90 | 90 | – | – | – | 90 | 100 | –
Cc1nc([C@H](C)NC(=O)c2cc(Cl)cc(C(F)(F)F)c2)n(-c2ccc(C(=O)N3CC(F)C3)cn2)n1 [Example I-20] | 100 | 100 | 90 | 100 | 100 | 80 to 100 | – | 90 | 100 | 100 | 100 | – | – | – | – | – | – | – | –
Cc1nc([C@H](C)NC(=O)c2cc(C(F)(F)F)cc(C(F)(F)F)c2)n(-c2ccc(C(=O)N3C[C@H](C)O[C@@H](C)C3)cn2)n1 [Example I-95] | – | 100 | 100 | 100 | 100 | – | 100 | – | 100 | 100 | 100 | – | – | – | – | – | – | – | 100
